From patent publication US4427671A, “Steroids esterified in position 17 and thioesterified in position 21, a process for preparing them and their use as medicaments” (priority 1981, dated 1984)

Tests used:
Assay type in all cases: in vivo, male Sprague-Dawley I.O.P.S. rats
[1] = Systemic activity after local administration: effect on weight gain
Protocol: (§1) The pharmacological activity of the products described in the invention was tested in the rat using a technique similar to that described by C. A. Winter and C. C. Porter (J. Am. Pharm. Ass. 1957, 46, 9, pages 515-519).
(§2) The principle of the test consists in implanting a pellet of cotton wool in the dorsal subcutaneous tissue of the animal. The corticoids to be studied are added to the pellet so that the following tests can be carried out:
(§3) (2) Determination of the systemic activity of the products after local administration
(§4) Local application of the corticoids may result, inter alia, in:
(b) Disruption of the protein metabolism which causes tissue fusion, resulting in an inhibition of the weight increase in animals.
(§5) The animals are divided into random homogeneous groups of 10 male Sprague-Dawley I.O.P.S. rats with a body weight of between 100 and 120 grams.
(§6) The pellets to be implanted weigh from 35 to 40 mg and are prepared from balls of dental cotton wool. Before being inserted, each pellet is weighed and impregnated with the precise quantity of the product which is to be studied, dissolved in 0.2 ml of chloroform. The chloroform is eliminated by evaporation over a period of 24 hours at ambient temperature.
(§7) Before implantation, each pellet is impregnated with a solution of antibiotics:
(§8) The animals are anaesthetised with ether, and then two pellets are implanted in each animal in the dorsal subcutaneous tissue, on each side of the median line:
(§9) on the left, the pellet containing the product to be tested (treated animal) or the carrier only (control animal);
(§10) on the right, the pellet containing the carrier only.
(§11) The animals are given normal food and are sacrificed six days after the pellets have been implanted.
(b) Effect on weight gain
The weight gain over six days is determined on the animals before they are sacrificed.
The activity of the products was expressed as the percentage inhibition in the weight gain of the treated animals compared with the weight gain in the control animals.
The ED 30 which corresponds to a 30% inhibition in the weight gain was determined.

thymus = assay: Systemic activity after local administration: effect on the weight of the thymus
Protocol: as §1, §2, §3, §4
(a) a reduction in the defence systems of the organism, the most notable sign of which is a reduction in the weight of the animals' thymuses.
as §5, §6, §7, §8, §9, §10, §11
(2) Determination of the systemic effect
The thymuses are taken from the same animals and weighed. Using the same type of calculation, an ED 50 is determined, which corresponds to the dosage of product resulting in a 50% decrease in weight of the thymuses, compared with the control animals.

granuloma = assay: Local anti-inflammatory activity: inhibition of granuloma formation around implanted cotton wool pellet; details: for R 1 (relative local anti-inflammatory activity compared with betamethasone 17,21-dipropionate): D.P.B. = 1, calculated from ED50; for R 1 (relative local anti-inflammatory activity compared with betamethasone 17,21-dipropionate) / ED50 (local anti-inflammatory activity, 50% inhibition in granuloma weight): Table 1; for ED50 (local anti-inflammatory activity, 50% inhibition in granuloma weight): rat, cotton pellet granuloma, six days after implantation
Protocol: A. Winter and C. C. Porter (J. Am. Pharm. Ass. 1957, 46, 9, pages 515-519).
as §2
(1) Determination of the local anti-inflammatory activity
The presence of products within the pellet may inhibit or prevent the formation of a granuloma.
as §5, §6, §7
Streptomycin 0.1 gram/ml.
as §8, §9, §10, §11
(1) Local anti-inflammatory activity
The pellets surrounded by granulomatous tissue are carefully removed and weighed, and then dried until a constant weight is obtained.
The relative activity of the test products compared with betamethasone 17,21-dipropionate is calculated according to the following equation: [formula]

[2] = D.P.B. = 1, calculated from ED30, Table 3
[3] = rat, local application, weight gain over six days, Table 3
[4] = D.P.B. = 1, calculated from ED50, Table 2
[5] = rat, local application, six days, Table 2

| R 3 (relative activity on weight gain compared with D.P.B.) [1, 2] | ED30 (30% inhibition in the weight gain) [1, 3] [mg/pellet] | R 2 (relative effect on thymus weight compared with D.P.B.) (thymus; [4]) | ED50 (50% decrease in weight of the thymuses) (thymus; [5]) | Compound | R 1 (relative local anti-inflammatory activity compared with betamethasone 17,21-dipropionate) (granuloma) | ED50 (local anti-inflammatory activity, 50% inhibition in granuloma weight) (granuloma) [mg/pellet] | ED30 (30% inhibition in the weight gain) ([1]; rat, in vivo, 8640 min) [mg/pellet] | R 3 (relative activity on weight gain compared with D.P.B.) ([1]; rat, in vivo, 8640 min) | ED50 (50% decrease in weight of the thymuses) (thymus; rat, in vivo) | R 2 (relative effect on thymus weight compared with D.P.B.) (thymus; rat, in vivo, 8640 min) | ED50 (50% decrease in weight of the thymuses) (thymus; rat, in vivo, 8640 min) [mg/pellet] | activity compared with betamethasone 17,21-dipropionate (times greater) (granuloma; local anti-inflammatory test) |
| --- | --- | --- | --- | --- | --- | --- | --- | --- | --- | --- | --- | --- |
| 0.16 | 5 | 0.27 | 3.1 mg/pellet | CCC(=O)OCC(=O)[C@@]1(OC(=O)CC)[C@@H](C)C[C@H]2[C@@H]3CCC4=CC(=O)C=C[C@]4(C)[C@@]3(Cl)[C@@H](O)C[C@@]21C [Beclomethasone dipropionate, beclomethasone 17,21-dipropionate, reference compound] | < 0.2 | > 5 | – | – | – | – | – | – |
| 1 | > 0.8 | 1 | 0,86 mg/pellet | CCC(=O)OCC(=O)C1(OC(=O)CC)C(C)CC2C3CCC4=CC(=O)C=CC4(C)C3(F)C(O)CC21C (stereo not shown) [D.P.B., betamethasone 17,21-dipropionate, reference compound] | 1 | 1.610 | – | – | – | – | – | – |
| – | – | – | – | CCCCC(=O)O[C@]1(C(=O)CSC(=O)CCCC)CC[C@H]2[C@@H]3CCC4=CC(=O)CC[C@]4(C)[C@H]3[C@@H](O)C[C@@]21C [Ex. 1, 11β-hydroxy-pregn-4-ene-3,20-dione (or hydrocortisone) 17-valerate, 21-thiovalerate] | > 8 | < 0.200 | > 3.2 | < 0.25 | zero to 3.2 | < 0.27 | – | – |
| – | – | – | – | CCCCC(=O)O[C@]1(C(=O)CSC(=O)C(C)(C)C)CC[C@H]2[C@@H]3CCC4=CC(=O)CC[C@]4(C)[C@H]3[C@@H](O)C[C@@]21C [Ex. 2, 11β-hydroxy-pregn-4-ene-3,20-dione (or hydrocortisone) 17-valerate, 21-thiopivalate] | 0.75 | 2.140 | > 3.4 | < 0.24 | zero to 3.4 | < 0.25 | – | – |
| – | – | – | – | CCCC(=O)O[C@]1(C(=O)CSC(C)=O)CC[C@H]2[C@@H]3CCC4=CC(=O)C=C[C@]4(C)[C@H]3C(=O)C[C@@]21C [Ex. 3, Pregna-1,4-diene-3,11,20-trione (or prednisone) 17-butyrate, 21-thioacetate] | 2.7 | 0.600 | > 5 | < 0.16 | – | < 0.17 | > 5 | – |
| – | – | – | – | CC(=O)SCC(=O)[C@@]1(OC(=O)c2ccccc2)CC[C@H]2[C@@H]3C[C@H](C)C4=CC(=O)C=C[C@]4(C)[C@H]3[C@@H](O)C[C@@]21C [Ex. 4, 11β-hydroxy-6α-methyl-pregna-1,4-diene-3,20-dione (or 6β-methylprednisolone) 17-benzoate, 21-thioacetate] | 29 | 0.056 | > 5 | < 0.16 | – | < 0.17 | > 5 | – |
| – | – | – | – | CCC(=O)O[C@]1(C(=O)CSC(=O)CC)CC[C@H]2[C@@H]3C[C@H](C)C4=CC(=O)C=C[C@]4(C)[C@H]3[C@@H](O)C[C@@]21C [Ex. 5, 11β-hydroxy-6α-methyl-pregna-1,4-diene-3,20-dione (or 6α-methylprednisolone) 17-propionate, 21-thiopropionate] | 7.7 | 0.210 | > 1 | < 0.8 | – | < 0.86 | > 1 | – |
| – | – | – | – | CCCCC(=O)O[C@]1(C(=O)CSC(=O)CCCC)CC[C@H]2[C@@H]3C[C@H](C)C4=CC(=O)C=C[C@]4(C)[C@H]3[C@@H](O)C[C@@]21C [Ex. 6, 11β-hydroxy-6α-methyl-pregna-1,4-diene-3,20-dione (or 6α-methylprednisolone) 17-valerate, 21-thiovalerate] | 8.9 | 0.180 | > 1 | < 0.8 | – | < 0.86 | > 1 | – |
| – | – | – | – | CCCCC(=O)O[C@]1(C(=O)CSC(C)=O)CC[C@H]2[C@@H]3C[C@H](C)C4=CC(=O)C=C[C@]4(C)[C@H]3[C@@H](O)C[C@@]21C [Ex. 7, 11β-hydroxy-6α-methyl-pregna-1,4-diene-3,20-dione (or 6α-methylprednisolone) 17-valerate, 21-thioacetate] | 2.0 | 0.800 | > 1 | < 0.8 | – | < 0.86 | > 1 | – |
| – | – | – | – | CC(=O)OC1(C(=O)CSC(C)=O)C(C)CC2C3CCC4=CC(=O)C=CC4(C)C3(F)C(O)CC21C (stereo not drawn) [Ex. 8, 9α-fluoro-11β-hydroxy-16β-methyl-pregna-1,4-diene-3,20-dione (or betamethasone) 17-acetate, 21-thioacetate] | 22 | 0.072 | 1 | 0.8 | – | 0.71 | 1.20 | – |
| – | – | – | – | CCC(=O)SCC(=O)C1(OC(C)=O)C(C)CC2C3CCC4=CC(=O)C=CC4(C)C3(F)C(O)CC21C (stereo not drawn) [Ex. 9, 9α-fluoro-11β-hydroxy-16β-methyl-pregna-diene-3,20-dione (or betamethasone) 17-acetate, 21-thiopropionate] | 16 | 0.100 | 1 | 0.8 | – | 0.51 | 1.70 | – |
| – | – | – | – | CCC(=O)OC1(C(=O)CSC(C)=O)C(C)CC2C3CCC4=CC(=O)C=CC4(C)C3(F)C(O)CC21C (stereo not drawn) [Ex. 10, 9α-fluoro-11β-hydroxy-16β-methyl-pregna-1,4-diene-3,20-dione (or betamethasone) 17-propionate, 21-thioacetate] | 124 | 0.013 | > 1 | < 0.8 | – | 3.40 | 0.25 | more than 100 times |
